Assay results reported in patent EP3714904B1, “IMINODIACETIC ACID SUBSTITUTED CYCLODEXTRINS AS POTENTIATORS OF BETA-LACTAM ANTIBIOTICS” (NATIONAL CENTER FOR SCIENTIFIC RESEARCH "DEMOKRITOS" (NCSRD), priority 2019, dated 2020).

How the values were obtained:
Klebsiella pneumoniae = test: MIC of β-lactams alone or with 50 µM IDACYD against clinical isolates; assay type: cell-based
Procedure: Further the in-vitro inhibitory activity of IDACYDs was tested against highly resistant pathogens. […] Table 2: Collection of clinical isolates used for in-vitro evaluation

Acinetobacter baumannii = test: as above; assay type: cell-based
Procedure: (§1) Further the in-vitro inhibitory activity of IDACYDs was tested against highly resistant pathogens. Tables 3, 4 and 5 show the effect of IDACYDs using a collection of 36 highly resistant Gram negative strains (Table 2, Kirby-Bauer disc diffusion method) producing NDM, VIM and IMP type MBLs as well as 6 isolates expressing serine beta-lactamases (ESBLs, AmpCs). […] Clinical isolates co-expressing ESBLs and/or AmpC β-lactamases along with MBLs where re-sensitized to both imipenem and meropenem, as expected. Table 2: Collection of clinical isolates used for in-vitro evaluation

Enterobacter gergoviae = test: as above; assay type: cell-based
Procedure: as §1

Escherichia coli = test: as above; assay type: cell-based
Procedure: as §1

Proteus mirabilis = test: as above; assay type: cell-based
Procedure: as §1

Providencia stuartii = test: as above; assay type: cell-based
Procedure: as §1

Serratia marcescens = test: as above; assay type: cell-based; conditions: isolate EUG-815 (VIM, CMY)
Procedure: as §1

[1] = tested on: NDM-1 producing K. pneumoniae strain LA26; test: Murine sepsis model: single dose treatment scheme-2; assay type: in vivo, CD-1 mice; conditions: single dose 10 mg/kg meropenem + 120 mg/kg β-IDACYD
Procedure: Example 9. […] Blood samples were collected at 0, 6 and 24 hours after injection of a single dose of antibiotic (4 infected animals for each timepoint), were serially diluted in normal saline (10^-1 to 10^-9) and plated on MH agar plates which were incubated for 16 hours at 37°C for determination of viable organisms. […] The resulting 3.0log10 reduction in the blood bacterial load in the presence of 120 mg/kg of the inhibitor β-IDACYD compared to the antibiotic itself confirmed the high repotentiation abilities of the inhibitor to carbapenems even for suboptimal antibiotic doses. […] Treatment was given in a form of a single shot 2h after infection and blood was drawn 0h, 6h and 24h post treatment initiation. All groups were of n=10. Error bars are indicative of SEM (n=2 replicates).

[2] = isolate LAR-7547 (NDM, VIM, CTXM)
[3] = isolate TZAN-59 (β-lactamase: None)

## CO[C@@H]1[C@@H](OC)[C@H]2O[C@H]3[C@H](OC)[C@@H](OC)[C@@H](O[C@H]4[C@H](OC)[C@@H](OC)[C@@H](O[C@H]5[C@H](OC)[C@@H](OC)[C@@H](O[C@H]6[C@H](OC)[C@@H](OC)[C@@H](O[C@H]7[C@H](OC)[C@@H](OC)[C@@H](O[C@H]8[C@H](OC)[C@@H](OC)[C@@H](O[C@@H]1[C@@H](CN(CC(=O)O)CC(=O)O)O2)O[C@@H]8CN(CC(=O)O)CC(=O)O)O[C@@H]7CN(CC(=O)O)CC(=O)O)O[C@@H]6CN(CC(=O)O)CC(=O)O)O[C@@H]5CN(CC(=O)O)CC(=O)O)O[C@@H]4CN(CC(=O)O)CC(=O)O)O[C@@H]3CN(CC(=O)O)CC(=O)O [β-IDACYD]
Klebsiella pneumoniae; isolate LAR-2873 (VIM-12)
  Imipenem /50µM β-IDACYD MIC: <0.125 µg/mL
  Meropenem /50µM β-IDACYD MIC: <0.25 µg/mL
Klebsiella pneumoniae; isolate LAR-4011/15
  Ceftazidime/ 50µM β-IDACYD MIC: 32 µg/mL
Klebsiella pneumoniae; [2]
  Imipenem /50µM β-IDACYD MIC: 4 µg/mL
  Meropenem /50µM β-IDACYD MIC: 16 µg/mL
Klebsiella pneumoniae; isolate SEC-2 (VIM)
  Imipenem /50µM β-IDACYD MIC: 2 µg/mL
  Meropenem /50µM β-IDACYD MIC: 2 µg/mL
Klebsiella pneumoniae; isolate SEC-4 (VIM)
  Imipenem /50µM β-IDACYD MIC: 2 µg/mL
  Meropenem /50µM β-IDACYD MIC: 1 µg/mL
Klebsiella pneumoniae; [3]
  Imipenem /50µM β-IDACYD MIC: 0.5 µg/mL
  Meropenem /50µM β-IDACYD MIC: 0.5 µg/mL
Klebsiella pneumoniae; isolate UoA 12/227 (VIM)
  Ceftazidime/ 50µM β-IDACYD MIC: <0.25 µg/mL
  Imipenem /50µM β-IDACYD MIC: <0.125 µg/mL
  Meropenem /50µM β-IDACYD MIC: <0.25 µg/mL
Klebsiella pneumoniae; isolate UoA 1995 (VIM)
  Ceftazidime/ 50µM β-IDACYD MIC: <0.25 µg/mL
  Imipenem /50µM β-IDACYD MIC: <0.125 µg/mL
  Meropenem /50µM β-IDACYD MIC: <0.25 µg/mL
Acinetobacter baumannii; isolate TZAN-40 (VIM, OXA-58)
  Imipenem /50µM β-IDACYD MIC: 0.25 µg/mL
  Meropenem /50µM β-IDACYD MIC: 2 µg/mL
Acinetobacter baumannii; isolate TZAN-42 (VIM, OXA-58)
  Imipenem /50µM β-IDACYD MIC: 2 µg/mL
  Meropenem /50µM β-IDACYD MIC: 8 µg/mL
Enterobacter gergoviae; isolate AK-5227 (VIM, CMY)
  Imipenem /50µM β-IDACYD MIC: 1 µg/mL
  Meropenem /50µM β-IDACYD MIC: <0.25 µg/mL
Enterobacter gergoviae; isolate AK-5240 (VIM, CMY)
  Imipenem /50µM β-IDACYD MIC: <0.125 µg/mL
  Meropenem /50µM β-IDACYD MIC: <0.25 µg/mL
Escherichia coli; isolate TZAN-116 (VIM)
  Ceftazidime/ 50µM β-IDACYD MIC: <0.25 µg/mL
  Imipenem /50µM β-IDACYD MIC: <0.125 µg/mL
  Meropenem /50µM β-IDACYD MIC: <0.25 µg/mL
Escherichia coli; isolate TZAN-541 (VIM)
  Imipenem /50µM β-IDACYD MIC: <0.125 µg/mL
  Meropenem /50µM β-IDACYD MIC: <0.25 µg/mL
Proteus mirabilis; isolate ALX-13 (VIM, VEB)
  Imipenem /50µM β-IDACYD MIC: 1 µg/mL
  Meropenem /50µM β-IDACYD MIC: 0.5 µg/mL
Proteus mirabilis; isolate ESDY-17 (VIM, CMY)
  Imipenem /50µM β-IDACYD MIC: <0.125 µg/mL
  Meropenem /50µM β-IDACYD MIC: <0.25 µg/mL
Proteus mirabilis; isolate ESDY-15184 (VIM, CMY)
  Ceftazidime/ 50µM β-IDACYD MIC: <0.25 µg/mL
  Imipenem /50µM β-IDACYD MIC: 0.125 µg/mL
  Meropenem /50µM β-IDACYD MIC: <0.25 µg/mL
Proteus mirabilis; isolate ESDY-15315 (VIM, CMY)
  Imipenem /50µM β-IDACYD MIC: <0.125 µg/mL
  Meropenem /50µM β-IDACYD MIC: <0.25 µg/mL
Providencia stuartii; isolate ALX- 21 (VIM, VEB)
  Ceftazidime/ 50µM β-IDACYD MIC: 16 µg/mL
  Imipenem /50µM β-IDACYD MIC: 0.25 µg/mL
  Meropenem /50µM β-IDACYD MIC: <0.25 µg/mL
Providencia stuartii; isolate ALX-27 (VIM)
  Imipenem /50µM β-IDACYD MIC: <0.125 µg/mL
  Meropenem /50µM β-IDACYD MIC: <0.25 µg/mL
Providencia stuartii; isolate ESDY-4559 (VIM)
  Ceftazidime/ 50µM β-IDACYD MIC: <0.25 µg/mL
  Imipenem /50µM β-IDACYD MIC: <0.125 µg/mL
  Meropenem /50µM β-IDACYD MIC: <0.25 µg/mL
Providencia stuartii; isolate ESDY-4563 (VIM, VEB)
  Imipenem /50µM β-IDACYD MIC: <0.125 µg/mL
  Meropenem /50µM β-IDACYD MIC: <0.25 µg/mL
Serratia marcescens
  Ceftazidime/ 50µM β-IDACYD MIC: <0.25 µg/mL
  Imipenem /50µM β-IDACYD MIC: <0.125 µg/mL
  Meropenem /50µM β-IDACYD MIC: <0.25 µg/mL
[1]
  reduction in the blood bacterial load compared to the antibiotic itself: 3.0 log10
[1]; within 48 h
  mice rescued (survival): 50%
